For series [1] the following is noted: cited from earlier work.

Where two headings read alike, the source gives them in different places. A value given as a limit tells only on which side of the number the result lay.

As for `O=C(O)COCC1OC2OC3C(COCC(=O)O)OC(OC4C(COCC(=O)O)OC(OC5C(COCC(=O)O)OC(OC6C(COCC(=O)O)OC(OC7C(COCC(=O)O)OC(OC8C(COCC(=O)O)OC(OC1C(O)C2O)C(O)C8O)C(O)C7O)C(O)C6O)C(O)C5O)C(O)C4O)C(O)C3O` (stereo not drawn) [Heptacarboxylic acid β-CD], where the note is “water”, the “Water Solubility” value is reported as greater than 300 g/100 ml H2 O.
On to `C[N+](C)(C)CC1OC2OC3C(CO)OC(OC4C(CO)OC(OC5C(CO)OC(OC6C(CO)OC(OC7C(CO)OC(OC8C(CO)OC(OC1C(O)C2O)C(O)C8O)C(O)C7O)C(O)C6O)C(O)C5O)C(O)C4O)C(O)C3O.[Cl-]` (stereo not drawn) [Monotrimethylammonium (chloride) β-CD], for which the “Water Solubility” value (25° C.) was greater than 200 g/100 ml H2 O.
In the case of Hydroxypropyl β-CD, in series [1], the “Water Solubility” value is listed as 115 g/100 ml H2 O.
Regarding “mono-6-dihydroxyphosphonyl-6-deoxy β-CD [Monophosphoric acid β-CD]”, the “Water Solubility” value (water) is listed as greater than 250 g/100 ml H2 O.

Source of the values: patent publication US5241059A, “Cyclodextrin derivatives” (Toppan Printing Co., Ltd., priority 1990, dated 1993).
